Experimental data taken from ChEMBL document CHEMBL3885861, “Open TG-GATES”.

Organism: Rattus norvegicus
Test: Open TG-GATES - Regimen: Single
Type: toxicity, organism-based, Sprague-Dawley
Design: regimen Single, gender Male, age 6 weeks
Conditions: in vivo, po, 300 mg/kg, route gavage, dose level Middle; for APTT / Bas / Eos / Fbg / Hb / Ht / Lym / MCH / MCHC / MCV / Mono / Neu / PT / Plat / RBC / Ret / WBC: tissue Blood; for KIDNEY_L / KIDNEY_R / KIDNEY_TOTAL: tissue Kidney; for LIVER: tissue Liver; for A/G / ALP / ALT / AST / BUN / CRE / Ca / Cl / DBIL / GLC / IP / K / LDH / Na / PL / RALB / TBIL / TC / TG / TP / gamma-GTP: tissue Plasma

Compound: O=C(N[C@H](CO)[C@H](O)c1ccc([N+](=O)[O-])cc1)C(Cl)Cl [CHLORAMPHENICOL]
- TERMINAL_BW (3 h): 221.3 g
- APTT (3 h): 16.6 s
- Bas (3 h): 0%
- Eos (3 h): 1%
- Fbg (3 h): 268.4 mg/dL
- Hb (3 h): 13.2 g/dL
- Ht (3 h): 39%
- Lym (3 h): 78.2%
- MCH (3 h): 21.8 pg
- MCHC (3 h): 33.9%
- MCV (3 h): 64.1 fL
- Mono (3 h): 3.2%
- Neu (3 h): 17.4%
- PT (3 h): 14.5 s
- Plat (3 h): 114 x10_4/uL
- RBC (3 h): 608.8 x10_4/ul
- Ret (3 h): 8.3%
- WBC (3 h): 71.3 x10_2/uL
- KIDNEY_L (3 h): 0.9 g
- KIDNEY_R (3 h): 0.9 g
- KIDNEY_TOTAL (3 h): 1.9 g
- LIVER (3 h): 9.8 g
- A/G (3 h): 0.9
- ALP (3 h): 1546.4 IU/L
- ALT (3 h): 41 IU/L
- AST (3 h): 76.6 IU/L
- BUN (3 h): 11 mg/dL
- CRE (3 h): 0.2 mg/dL
- Ca (3 h): 11.5 mg/dL
- Cl (3 h): 105.8 meq/L
- DBIL (3 h): 0.018 mg/dL
- GLC (3 h): 181.8 mg/dL
- IP (3 h): 9.1 mg/dL
- K (3 h): 4.1 meq/L
- LDH (3 h): 66.2 IU/L
- Na (3 h): 139.8 meq/L
- PL (3 h): 144.2 mg/dL
- RALB (3 h): 2.5 g/dL
- TBIL (3 h): 0.064 mg/dL
- TC (3 h): 76.6 mg/dL
- TG (3 h): 66 mg/dL
- TP (3 h): 5.5 g/dL
- gamma-GTP (3 h): 1.2 IU/L
- TERMINAL_BW (6 h): 221.3 g
- APTT (6 h): 17.6 s
- Bas (6 h): 0%
- Eos (6 h): 0.8%
- Fbg (6 h): 284 mg/dL
- Hb (6 h): 13.4 g/dL
- Ht (6 h): 42.8%
- Lym (6 h): 79.8%
- MCH (6 h): 21.7 pg
- MCHC (6 h): 31.3%
- MCV (6 h): 69.4 fL
- Mono (6 h): 2.6%
- Neu (6 h): 16.8%
- PT (6 h): 15 s
- Plat (6 h): 107.3 x10_4/uL
- RBC (6 h): 618.2 x10_4/ul
- Ret (6 h): 8.2%
- WBC (6 h): 68.7 x10_2/uL
- KIDNEY_L (6 h): 0.9 g
- KIDNEY_R (6 h): 1 g
- KIDNEY_TOTAL (6 h): 1.9 g
- LIVER (6 h): 8.8 g
- A/G (6 h): 0.9
- ALP (6 h): 1672 IU/L
- ALT (6 h): 40.8 IU/L
- AST (6 h): 72.2 IU/L
- BUN (6 h): 9.4 mg/dL
- CRE (6 h): 0.2 mg/dL
- Ca (6 h): 11.4 mg/dL
- Cl (6 h): 106 meq/L
- DBIL (6 h): 0.014 mg/dL
- GLC (6 h): 184.4 mg/dL
- IP (6 h): 9.8 mg/dL
- K (6 h): 4.4 meq/L
- LDH (6 h): 79 IU/L
- Na (6 h): 141 meq/L
- PL (6 h): 138.2 mg/dL
- RALB (6 h): 2.5 g/dL
- TBIL (6 h): 0.07 mg/dL
- TC (6 h): 76.6 mg/dL
- TG (6 h): 60 mg/dL
- TP (6 h): 5.4 g/dL
- gamma-GTP (6 h): 1 IU/L
- TERMINAL_BW (9 h): 221.3 g
- APTT (9 h): 16.4 s
- Bas (9 h): 0%
- Eos (9 h): 0.8%
- Fbg (9 h): 273.4 mg/dL
- Hb (9 h): 13.2 g/dL
- Ht (9 h): 42.2%
- Lym (9 h): 81.6%
- MCH (9 h): 20.5 pg
- MCHC (9 h): 31.4%
- MCV (9 h): 65.4 fL
- Mono (9 h): 1.8%
- Neu (9 h): 15%
- PT (9 h): 15.2 s
- Plat (9 h): 109.8 x10_4/uL
- RBC (9 h): 646.2 x10_4/ul
- Ret (9 h): 7.4%
- WBC (9 h): 55.9 x10_2/uL
- KIDNEY_L (9 h): 0.9 g
- KIDNEY_R (9 h): 0.9 g
- KIDNEY_TOTAL (9 h): 1.8 g
- LIVER (9 h): 8.3 g
- A/G (9 h): 0.9
- ALP (9 h): 1711.2 IU/L
- ALT (9 h): 34.6 IU/L
- AST (9 h): 70.2 IU/L
- BUN (9 h): 10.2 mg/dL
- CRE (9 h): 0.2 mg/dL
- Ca (9 h): 11.1 mg/dL
- Cl (9 h): 105 meq/L
- DBIL (9 h): 0.014 mg/dL
- GLC (9 h): 180.4 mg/dL
- IP (9 h): 10.2 mg/dL
- K (9 h): 4.5 meq/L
- LDH (9 h): 59.4 IU/L
- Na (9 h): 139.8 meq/L
- PL (9 h): 122 mg/dL
- RALB (9 h): 2.5 g/dL
- TBIL (9 h): 0.068 mg/dL
- TC (9 h): 67.8 mg/dL
- TG (9 h): 36 mg/dL
- TP (9 h): 5.3 g/dL
- gamma-GTP (9 h): 1.2 IU/L
- TERMINAL_BW (24 h): 227.9 g
- APTT (24 h): 18.8 s
- Bas (24 h): 0%
- Eos (24 h): 0.8%
- Fbg (24 h): 258.8 mg/dL
- Hb (24 h): 13.7 g/dL
- Ht (24 h): 42.4%
- Lym (24 h): 84.4%
- MCH (24 h): 21.7 pg
- MCHC (24 h): 32.1%
- MCV (24 h): 67.6 fL
- Mono (24 h): 2.8%
- Neu (24 h): 11.6%
- PT (24 h): 14.8 s
- Plat (24 h): 118.7 x10_4/uL
- RBC (24 h): 628.2 x10_4/ul
- Ret (24 h): 7.8%
- WBC (24 h): 66 x10_2/uL
- KIDNEY_L (24 h): 1 g
- KIDNEY_R (24 h): 1 g
- KIDNEY_TOTAL (24 h): 2 g
- LIVER (24 h): 9.4 g
- A/G (24 h): 0.9
- ALP (24 h): 1891.8 IU/L
- ALT (24 h): 48.2 IU/L
- AST (24 h): 76.6 IU/L
- BUN (24 h): 14.8 mg/dL
- CRE (24 h): 0.2 mg/dL
- Ca (24 h): 11.5 mg/dL
- Cl (24 h): 105.4 meq/L
- DBIL (24 h): 0.02 mg/dL
- GLC (24 h): 190.4 mg/dL
- IP (24 h): 8.8 mg/dL
- K (24 h): 4.5 meq/L
- LDH (24 h): 65 IU/L
- Na (24 h): 141.6 meq/L
- PL (24 h): 157.6 mg/dL
- RALB (24 h): 2.5 g/dL
- TBIL (24 h): 0.062 mg/dL
- TC (24 h): 86 mg/dL
- TG (24 h): 81 mg/dL
- TP (24 h): 5.5 g/dL
- gamma-GTP (24 h): 1 IU/L
